Residues, ends and D or L forms follow the SMILES beside them.
What was measured:
[1] = test system: CC(C)[C@H](NC(=O)[C@@H](N)Cc1ccccc1)C(=O)O; test: purified protein, by the assay type; settings: Phe-Val, pH 7.5, 37° C.
[2] = target: S. aureus N-Succinyl-L,L-DAP Desuccinylase (DapE), SEQ ID NO: 2 (Staphylococcus aureus, UniProt Q5HF23); test: qualitative dipeptidase activity (TLC assay); type: biochemical, Staphylococcus aureus COL; design: key: +: Mild hydrolytic activity; ++: Moderate hydrolytic activity; +++: High hydrolytic activity; settings: 5.0 mg/mL dipeptide, 2 μg DapE, 50 mM Tris-HCl pH 7.5, 37° C., 30 min
[3] = test system: botanical DapA (N. sylvestris); settings: highly sensitive, read-out: IC50 of feedback inhibition by L-lysine; cited from earlier work
[4] = target: DapA from gram negative bacteria (E. coli) (Escherichia coli, UniProt P0A6L2); settings: less sensitive, read-out: IC50 of feedback inhibition by L-lysine; cited from earlier work
Sequence of DapA from gram negative bacteria (E. coli) (P0A6L2 whole entry): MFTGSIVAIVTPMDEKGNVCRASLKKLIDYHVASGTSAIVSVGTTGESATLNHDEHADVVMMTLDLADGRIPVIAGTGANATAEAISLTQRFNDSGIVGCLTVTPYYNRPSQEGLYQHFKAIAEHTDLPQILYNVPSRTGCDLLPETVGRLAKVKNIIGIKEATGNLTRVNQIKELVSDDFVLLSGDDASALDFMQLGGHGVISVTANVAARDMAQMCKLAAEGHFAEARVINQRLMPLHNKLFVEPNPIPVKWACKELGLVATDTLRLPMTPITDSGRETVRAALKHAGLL

Sequence of S. aureus N-Succinyl-L,L-DAP Desuccinylase (DapE), SEQ ID NO: 2 (Q5HF23 whole entry): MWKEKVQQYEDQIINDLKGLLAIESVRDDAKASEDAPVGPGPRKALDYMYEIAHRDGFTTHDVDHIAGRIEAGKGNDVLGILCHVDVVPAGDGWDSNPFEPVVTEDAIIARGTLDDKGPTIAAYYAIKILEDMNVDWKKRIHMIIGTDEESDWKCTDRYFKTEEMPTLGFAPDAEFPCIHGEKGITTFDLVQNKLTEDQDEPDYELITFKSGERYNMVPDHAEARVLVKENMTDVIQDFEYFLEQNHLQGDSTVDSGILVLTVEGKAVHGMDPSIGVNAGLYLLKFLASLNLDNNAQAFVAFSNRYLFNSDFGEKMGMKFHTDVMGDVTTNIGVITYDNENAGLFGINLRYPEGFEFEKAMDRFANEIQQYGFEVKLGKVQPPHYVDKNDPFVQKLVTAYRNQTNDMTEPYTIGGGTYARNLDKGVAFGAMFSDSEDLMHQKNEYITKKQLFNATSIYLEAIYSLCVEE

| Compound | Activity (qualitative dipeptidase / hydrolytic activity) [2] | other results |
| --- | --- | --- |
| S. aureus N-Succinyl-L,L-DAP Desuccinylase (DapE), holo form, SEQ ID NO: 2 (Staphylococcus aureus subsp. aureus COL) |  | Km ([1]; other: holo-DapE + Mn^2+ + TCEP): 1100 ± 100 µM; Km ([1]; other: holo-DapE + Mn^2+): 1150 ± 120 µM; Km ([1]; other: holo-DapE): 670 ± 100 µM |
| CC(C)C[C@H](NC(=O)[C@@H](N)CCCCN)C(=O)O [Lys-Leu] (H-Lys-Leu-OH) | ++ |  |
| C[C@H](NC(=O)[C@@H](N)CCCN=C(N)N)C(=O)O [Arg-Ala] (H-Arg-Ala-OH) | +++ |  |
| CC(C)[C@H](NC(=O)[C@@H](N)Cc1ccccc1)C(=O)O [Phe-Val] (H-Phe-Val-OH) | +++ |  |
| CC(C)C[C@H](NC(=O)[C@@H](N)CCCN=C(N)N)C(=O)O [Arg-Leu] (H-Arg-Leu-OH) | +++ |  |
| NCCCC[C@H](N)C(=O)N[C@@H](Cc1ccccc1)C(=O)O [Lys-Phe] | ++ |  |
| C[C@H](N)C(=O)N[C@@H](CO)C(=O)O [Ala-Ser] (H-Ala-Ser-OH) | + |  |
| CC(C)[C@H](NC(=O)[C@@H](N)CCCN=C(N)N)C(=O)O [Arg-Val] (H-Arg-Val-OH) | +++ |  |
| NCCCC[C@H](N)C(=O)O [L-lysine] |  | IC50 [3]: 0.015 to 0.02 mM; IC50 [4]: 100 mM |
| CC[C@H](C)[C@H](NC(=O)[C@@H](N)CCCN=C(N)N)C(=O)O [Arg-Ile] (H-Arg-Ile-OH) | +++ |  |
| NCCCC[C@H](NC(=O)CN)C(=O)O [Gly-Lys] (H-Gly-Lys-OH) | + |  |
| CC(C)C[C@H](NC(=O)[C@@H](N)Cc1cnc[nH]1)C(=O)O [His-Leu] (H-His-Leu-OH) | + |  |
| NCC(=O)N[C@@H](CO)C(=O)O [Gly-Ser] (H-Gly-Ser-OH) | + |  |
| NCCCC[C@H](NC(=O)[C@@H](N)CC(=O)O)C(=O)O [Asp-Lys] (H-Asp-Lys-OH) | + |  |
| N[C@@H](CO)C(=O)N[C@@H](Cc1cnc[nH]1)C(=O)O [Ser-His] (H-Ser-His-OH) | ++ |  |
